The results in this text go back to patent publication US8148391B2 (Cephalon, Inc., priority 2006, dated 2012).

For experiment [1], the target named is T1, baculovirus-expressed ALK (Homo sapiens, UniProt Q9UM73).
T1 construct: host or cells: baculovirus expression system
Briefly: ALK Kinase Assay (ELISA-type, time-resolved fluorescence). Format: biochemical. A digest of the protocol:
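Plates coated with phospholipase C-γ substrate (10 μg/mL in TBS); reaction started with 30 ng/ml ALK and run 15 min at 37° C. Phosphorylated substrate detected with Eu-N1-labeled PT66 antibody. IC50 from sigmoidal variable-slope fit of percent inhibition vs log concentration.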
Background: In an ELISA, binding on a coated surface is turned into a signal by an enzyme label.

Experiment [2] has as its target T2, c-Met (cytoplasmic domain) (Homo sapiens, UniProt P08581).
T2 construct: 10 ng/mL c-Met (cytoplasmic domain, Invitrogen Corporation #PV3143); purchased Invitrogen Corporation PV3143
Briefly: c-Met Kinase Assay (same methods as for ALK, with modifications). Format: biochemical. An outline of the steps: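 Europium-labeled PT66 antibody (Eu-N1) detects substrate phosphorylation on wells coated with phospholipase C-γ at 10 μg/mL. The kinase, the cytoplasmic domain of c-Met at 10 ng/mL, starts the reaction, which proceeds 15 minutes at 37° C.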

Setting [3] is: ALK kinase inhibition, 1 μM ATP, read-out: ALK Activity.
Setting [4] is: c-Met kinase inhibition, 1 μM ATP, read-out: cMet Activity.
[5] abbreviates: 1 μM ATP (Km level), 30 ng/ml ALK, 37° C., 15 minutes, read-out: ALK Activity (ALK kinase inhibition, IC50 class).
Setting [6] is: 1 μM ATP (Km level), 10 ng/mL c-Met, read-out: cMet Activity (c-Met kinase inhibition, IC50 class).
Where [7] appears, read: 1 μM ATP (Km level), read-out: ALK Activity (ALK Kinase Inhibition, IC50).
The mark [8] stands for this setting: 1 μM ATP (Km level), read-out: cMet Activity (c-Met Kinase Inhibition, IC50).
Where [9] appears, read: ALK kinase inhibition, 1 μM ATP (Km level), read-out: ALK Activity.
Where [10] appears, read: c-Met kinase inhibition, 1 μM ATP (Km level), read-out: cMet Activity.

Read-outs that look alike come from different tables or passages of the source.

T2 sequence (P08581 956-1390 limits assumed): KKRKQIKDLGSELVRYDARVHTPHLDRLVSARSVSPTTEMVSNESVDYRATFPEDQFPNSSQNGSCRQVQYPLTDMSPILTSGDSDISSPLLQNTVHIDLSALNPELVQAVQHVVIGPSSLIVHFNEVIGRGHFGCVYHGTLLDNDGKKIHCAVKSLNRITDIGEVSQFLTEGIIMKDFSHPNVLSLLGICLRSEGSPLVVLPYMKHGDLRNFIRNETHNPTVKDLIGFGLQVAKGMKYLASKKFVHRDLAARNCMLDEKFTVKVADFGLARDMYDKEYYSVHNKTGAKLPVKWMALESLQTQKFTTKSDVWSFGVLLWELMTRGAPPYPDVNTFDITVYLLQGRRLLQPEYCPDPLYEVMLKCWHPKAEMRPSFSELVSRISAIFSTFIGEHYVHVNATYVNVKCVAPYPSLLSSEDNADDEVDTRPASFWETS
T1 sequence (Q9UM73 19-1620): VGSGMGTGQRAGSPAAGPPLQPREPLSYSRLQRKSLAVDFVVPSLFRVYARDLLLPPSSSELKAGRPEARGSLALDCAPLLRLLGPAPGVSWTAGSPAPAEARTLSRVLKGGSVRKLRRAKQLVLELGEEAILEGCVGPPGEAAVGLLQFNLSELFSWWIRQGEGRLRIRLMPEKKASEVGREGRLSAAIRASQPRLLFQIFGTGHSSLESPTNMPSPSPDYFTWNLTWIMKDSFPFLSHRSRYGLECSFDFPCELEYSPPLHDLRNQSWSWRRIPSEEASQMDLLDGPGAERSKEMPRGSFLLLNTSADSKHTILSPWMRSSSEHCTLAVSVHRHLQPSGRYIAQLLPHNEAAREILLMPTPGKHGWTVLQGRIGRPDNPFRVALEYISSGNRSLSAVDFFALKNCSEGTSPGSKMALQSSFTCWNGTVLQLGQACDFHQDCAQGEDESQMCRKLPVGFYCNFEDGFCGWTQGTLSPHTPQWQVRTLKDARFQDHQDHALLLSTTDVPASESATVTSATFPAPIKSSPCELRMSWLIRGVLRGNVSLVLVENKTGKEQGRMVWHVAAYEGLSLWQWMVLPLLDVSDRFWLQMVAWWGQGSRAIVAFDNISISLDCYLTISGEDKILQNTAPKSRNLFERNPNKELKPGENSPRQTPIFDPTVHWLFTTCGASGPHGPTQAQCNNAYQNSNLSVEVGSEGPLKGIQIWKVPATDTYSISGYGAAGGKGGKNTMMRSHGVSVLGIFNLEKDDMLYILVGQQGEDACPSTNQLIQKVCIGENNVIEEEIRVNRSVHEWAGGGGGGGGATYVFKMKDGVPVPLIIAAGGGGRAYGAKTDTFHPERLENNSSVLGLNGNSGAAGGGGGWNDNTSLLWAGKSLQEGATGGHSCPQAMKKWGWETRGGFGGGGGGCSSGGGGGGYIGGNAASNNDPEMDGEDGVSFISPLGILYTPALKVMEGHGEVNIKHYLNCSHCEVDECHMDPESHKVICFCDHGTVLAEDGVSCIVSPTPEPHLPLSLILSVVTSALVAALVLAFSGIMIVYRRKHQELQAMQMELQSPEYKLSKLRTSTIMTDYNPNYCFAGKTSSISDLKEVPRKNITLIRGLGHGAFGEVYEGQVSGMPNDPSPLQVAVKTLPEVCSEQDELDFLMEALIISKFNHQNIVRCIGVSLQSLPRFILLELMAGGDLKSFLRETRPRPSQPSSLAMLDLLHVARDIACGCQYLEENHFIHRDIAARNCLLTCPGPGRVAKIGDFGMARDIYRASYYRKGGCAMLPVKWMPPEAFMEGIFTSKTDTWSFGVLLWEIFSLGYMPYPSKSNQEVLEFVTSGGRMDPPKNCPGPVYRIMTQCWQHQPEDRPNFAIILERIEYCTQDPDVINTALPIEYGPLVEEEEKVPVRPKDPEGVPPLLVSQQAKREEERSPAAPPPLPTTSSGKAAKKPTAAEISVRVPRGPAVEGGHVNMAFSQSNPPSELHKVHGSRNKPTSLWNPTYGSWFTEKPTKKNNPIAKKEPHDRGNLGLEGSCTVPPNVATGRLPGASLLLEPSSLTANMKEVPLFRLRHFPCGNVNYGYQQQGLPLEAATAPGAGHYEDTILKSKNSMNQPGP

`CCN1CCN(CC(=O)OCCOC)C(=O)c2ccc(Nc3ncc(Cl)c(Nc4c(F)cccc4C(=O)NC)n3)cc21` [Example 1458, {8-[5-Chloro-4-(2-fluoro-6-methylcarbamoyl-phenylamino)-pyrimidin-2-ylamino]-1-ethyl-5-oxo-1,2,3,5-tetrahydro-benzo[e][1,4]diazepin-4-yl}-acetic acid 2-methoxy-ethyl ester]: the figures for the IC50 in experiment [1] (setting [3]) and in experiment [2] (setting [4]) were 100 to 1000 nM and below 100 nM, respectively.

Turning to `CCN1C(=O)CCCc2ccc(Nc3ncc(Cl)c(Nc4ccc(CC#N)cc4)n3)cc21` [Example 1225, {4-[5-Chloro-2-(1-ethyl-2-oxo-2,3,4,5-tetrahydro-1H-1-benzazepin-8-ylamino)-pyrimidin-4-ylamino]-phenyl}-acetonitrile], the IC50 in experiment [1] (setting [5]) is 100 to 1000 nM; in experiment [2] (setting [6]) it was 1000 to 10000 nM.

Consider `COc1c(Nc2ncc(Cl)c(Nc3ccccc3S(=O)(=O)N3CCC(O)C3)n2)ccc2c1CCC(N1CCOCC1)CC2` (mixture of isomers) [Example 906, 1-{2-[5-Chloro-2-(1-methoxy-7-morpholin-4-yl-6,7,8,9-tetrahydro-5H-benzocyclohepten-2-ylamino)-pyrimidin-4-ylamino]-benzenesulfonyl}-pyrrolidin-3-ol], for which the IC50 in experiment [1] (setting [7]) was below 100 nM; in experiment [2] (setting [8]) it was 1000 to 10000 nM.

Turning to `COCCN1CCc2ccc(Nc3ncc(Cl)c(N[C@@H]4CCC[C@@H](N(CC#N)S(C)(=O)=O)C4)n3)cc2CC1` (relative stereo) [Example 1382, rel-N-((1R,3R)-3-{5-Chloro-2-[3-(2-methoxy-ethyl)-2,3,4,5-tetrahydro-1H-benzo[d]azepin-7-ylamino]-pyrimidin-4-ylamino}-cyclohexyl)-N-cyanomethyl-methanesulfonamide], the IC50 in experiment [1] (setting [5]) fell in the range of 100 to 1000 nM; in experiment [2] (setting [6]), 1000 to 10000 nM.

Take `COc1cc2c(cc1Nc1ncc(Cl)c(Nc3ccccc3S(=O)(=O)N3CC[C@@H](O)C3)n1)CCN(C[C@H](C)O)CC2` [Example 1554, (R)-1-(2-{5-Chloro-2-[3-((S)-2-hydroxy-propyl)-8-methoxy-2,3,4,5-tetrahydro-1H-3-benzazepin-7-ylamino]-pyrimidin-4-ylamino}-benzenesulfonyl)-pyrrolidin-3-ol]: the IC50 in experiment [1] (setting [3]) is below 100 nM; in experiment [2] (setting [4]) it was 100 to 1000 nM.

Turning to `CCN1C(=O)CCCc2c1ccc(Nc1ncc(Cl)c(N[C@@H]3CCC[C@H]3NS(C)(=O)=O)n1)c2OC` (relative stereo) [Example 374, N-{trans-2-[5-Chloro-2-(1-ethyl-6-methoxy-2-oxo-2,3,4,5-tetrahydro-1H-benzo[b]azepin-7-ylamino)-pyrimidin-4-ylamino]-cyclopentyl}-methanesulfonamide], the IC50 in experiment [1] (setting [9]) is 100 to 1000 nM; in experiment [2] (setting [10]), above 10000 nM.

As to `COC(=O)c1sc(-c2ccccc2)c(C)c1Nc1nc(Nc2ccc3c(c2)CCOC(=O)N3C)ncc1Cl` [Example 1762, 3-[5-Chloro-2-(5-methyl-6-oxo-5,6,8,9-tetrahydro-7-oxa-5-aza-benzocyclohepten-2-ylamino)-pyrimidin-4-ylamino]-4-methyl-5-phenyl-thiophene-2-carboxylic acid methyl ester], the IC50 in experiment [1] (setting [3]) and in experiment [2] (setting [4]) was above 10000 nM throughout.

`CNS(=O)(=O)c1ccccc1Nc1nc(Nc2ccc3c(c2)C2CC3CN(S(C)(=O)=O)C2)ncc1Cl` (stereo not drawn) [Example 163, 2-[5-Chloro-2-(10-methanesulfonyl-10-aza-tricyclo[6.3.1.0*2,7*]dodeca-2,4,6-trien-4-ylamino)-pyrimidin-4-ylamino]-N-methyl-benzenesulfonamide]: the IC50 was below 100 nM in experiment [1] (setting [9]) and 1000 to 10000 nM in experiment [2] (setting [10]).

For the compound `CNC(=O)c1cccc(F)c1Nc1nc(Nc2ccc3c(c2)N(C(C)=O)CCCC3)ncc1Cl` [Example 1489, 2-[2-(1-Acetyl-2,3,4,5-tetrahydro-1H-benzo[b]azepin-8-ylamino)-5-chloro-pyrimidin-4-ylamino]-3-fluoro-N-methyl-benzamide], the IC50 in experiment [1] (setting [3]) is 100 to 1000 nM; in experiment [2] (setting [4]) it was below 100 nM.

In the case of `CCN1C(=O)CCC(C)(C)c2ccc(Nc3ncc(Cl)c(N[C@H]4[C@@H](C(N)=O)[C@@H]5C=C[C@H]4C5)n3)cc21` [Example 1586, (1S,2S,3R,4R)-3-[5-Chloro-2-(1-ethyl-5,5-dimethyl-2-oxo-2,3,4,5-tetrahydro-1H-benzo[b]azepin-8-ylamino)-pyrimidin-4-ylamino]-bicyclo[2.2.1]hept-5-ene-2-carboxylic acid amide], the IC50 in experiment [1] (setting [3]) and in experiment [2] (setting [4]) was below 100 nM each time.

For `CNC(=O)c1ccccc1Nc1nc(Nc2ccc3c(c2)N(CCOC)C(=O)CCC3(C)C)ncc1Cl` [Example 1585, 2-{5-Chloro-2-[1-(2-methoxy-ethyl)-5,5-dimethyl-2-oxo-2,3,4,5-tetrahydro-1H-benzo[b]azepin-8-ylamino]-pyrimidin-4-ylamino}-N-methyl-benzamide], the IC50 is below 100 nM in experiment [1] (setting [3]) and 100 to 1000 nM in experiment [2] (setting [4]).

As for `CC1(C)CCC(=O)Nc2ccc(Nc3ncc(Cl)c(Nc4ccc5[nH]c(C(F)(F)F)nc5c4)n3)cc21` [Example 1014, 7-[5-Chloro-4-(2-trifluoromethyl-1H-benzoimidazol-5-ylamino)-pyrimidin-2-ylamino]-5,5-dimethyl-1,3,4,5-tetrahydro-benzo[b]azepin-2-one], the IC50 in experiment [1] (setting [5]) is below 100 nM; in experiment [2] (setting [6]), above 10000 nM.

For `CNC(=O)c1cccc(Nc2nc(Nc3ccc4c(c3)CCCC(=O)N4C)ncc2Cl)c1` [Example 668, 3-[5-Chloro-2-(1-methyl-2-oxo-2,3,4,5-tetrahydro-1H-benzo[b]azepin-7-ylamino)-pyrimidin-4-ylamino]-N-methyl-benzamide], the IC50 is 100 to 1000 nM in experiment [1] (setting [7]) and 1000 to 10000 nM in experiment [2] (setting [8]).

For the compound `CN1CCNCc2ccc(Nc3ncc(Cl)c(N[C@@H]4CCCC[C@H]4NS(C)(=O)=O)n3)cc21` [Example 475, N-{(1R,2R)-2-[5-Chloro-2-(1-methyl-2,3,4,5-tetrahydro-1H-benzo[e][1,4]diazepin-8-ylamino)-pyrimidin-4-ylamino]-cyclohexyl}-methanesulfonamide], the IC50 in experiment [1] (setting [9]) is below 100 nM; in experiment [2] (setting [10]) it was 1000 to 10000 nM.

As for `COCCN1CCc2ccc(Nc3ncc(Cl)c(Nc4c(F)cccc4C(=O)NCCC#N)n3)cc2CC1` [Example 1043, 2-{5-Chloro-2-[3-(2-methoxy-ethyl)-2,3,4,5-tetrahydro-1H-benzo[d]azepin-7-ylamino]-pyrimidin-4-ylamino}-N-(2-cyano-ethyl)-3-fluoro-benzamide], the IC50 in experiment [1] (setting [5]) was 100 to 1000 nM; in experiment [2] (setting [6]), below 100 nM.

Regarding `CCC1C(=O)N(CC)CCc2c1ccc(Nc1ncc(Cl)c(Nc3ccccc3C(=O)NC)n1)c2OC` (stereo not drawn) [Example 152, 2-[5-Chloro-2-(1,3-diethyl-6-methoxy-2-oxo-2,3,4,5-tetrahydro-1H-benzo[d]azepin-7-ylamino)-pyrimidin-4-ylamino]-N-methyl-benzamide], the IC50 in experiment [1] (setting [9]) was below 100 nM; in experiment [2] (setting [10]), 1000 to 10000 nM.

As for `CN1C(=O)OCCc2cc(Nc3ncc(Cl)c(Nc4cccc5[nH]ncc45)n3)ccc21` [Example 1769, 2-[5-Chloro-4-(1H-indazol-4-ylamino)-pyrimidin-2-ylamino]-5-methyl-8,9-dihydro-5H-7-oxa-5-aza-benzocyclohepten-6-one], the IC50 in experiment [1] (setting [3]) and in experiment [2] (setting [4]) was 100 to 1000 nM in each case.

As for `COc1cc2c(cc1Nc1ncc(Cl)c(N[C@H]3[C@@H](C(N)=O)[C@@H]4C=C[C@H]3C4)n1)CCN(CCO)CC2` [Example 1532, (1S,2S,3R,4R)-3-{5-Chloro-2-[3-(2-hydroxy-ethyl)-8-methoxy-2,3,4,5-tetrahydro-1H-3-benzazepin-7-ylamino]-pyrimidin-4-ylamino}-bicyclo[2.2.1]hept-5-ene-2-carboxylic acid amide], the results for the IC50 in experiment [1] (setting [3]) and in experiment [2] (setting [4]) were below 100 nM and above 10000 nM, respectively.

As to “3-({2-[5-Chloro-2-(1-ethyl-5,5-dimethyl-2-oxo-2,3,4,5-tetrahydro-1H-1-benzazepin-8-ylamino)-pyrimidin-4-ylamino]-3-fluoro-phenyl}-methyl-amino)-propionitrile [Example 1265]”, the IC50 was 100 to 1000 nM in experiment [1] (setting [5]) and 1000 to 10000 nM in experiment [2] (setting [6]).

For the compound `CC(=O)NC1CC(C)(C)c2ccc(Nc3ncc(Cl)c(Nc4c(F)cccc4C(=O)NCC#N)n3)cc2NC1=O` (stereo not drawn) [Example 1636, 2-[2-(3-Acetylamino-5,5-dimethyl-2-oxo-2,3,4,5-tetrahydro-1H-benzo[b]azepin-8-ylamino)-5-chloro-pyrimidin-4-ylamino]-N-cyanomethyl-3-fluoro-Benzamide], the IC50 in experiment [1] (setting [3]) and in experiment [2] (setting [4]) was below 100 nM throughout.

For the compound `COc1cc2c(cc1Nc1ncc(Cl)c(Nc3ccc(N4CCOCC4)cc3OC)n1)CCN(CC(C)(F)F)CC2` [Example 780, 5-Chloro-N*2*-[3-(2,2-difluoro-propyl)-8-methoxy-2,3,4,5-tetrahydro-1H-benzo[d]azepin-7-yl]-N*4*-(2-methoxy-4-morpholin-4-yl-phenyl)-pyrimidine-2,4-diamine], the IC50 was 100 to 1000 nM in experiment [1] (setting [7]) and above 10000 nM in experiment [2] (setting [8]).
